Laboratory results from paper PMC10539439 (Pharmacological Reports, 2023).

Assay: Distribution in brain after ip administration
Type: in vivo, rat
Details: for Tmax / concentration at 5 min / concentration at 15 min / concentration at 30 min / concentration at 60 min / concentration at 120 min / concentration at 240 min: male, Wistar, rat, brain; for concentration at 5 min / concentration at 15 min / concentration at 30 min / concentration at 60 min / concentration at 120 min / concentration at 240 min: intraperitoneal, mean; for concentration at 5 min: 5 min after administration; for concentration at 15 min: 15 min after administration; for concentration at 30 min: 30 min after administration; for concentration at 60 min: 60 min after administration; for concentration at 120 min: 120 min after administration; for concentration at 240 min: 240 min after administration; for Penetration into the brain: summary table
Description: For the pharmacokinetic study, a group of 56 adult male rats (Wistar, 220–250 g, […]) were used in the experiment. Animals were purchased from the Animal House of the Faculty of Pharmacy of Jagiellonian University Medical College, Krakow, Poland. […] These were then given through an intraperitoneally injections (ip) at a dose of 0.3 mg/kg and 0.4 mg/kg, respectively. Blood samples were collected at 0 min (predose), 5 min, 15 min, 30 min, 60 min, 120 min, and 240 min after compound administration. Blood and brain samples were collected under general anesthesia induced by ip injections of 50 mg/kg ketamine plus 8 mg/kg xylazine. Blood samples were taken in heparinized tubes and immediately centrifuged at 3500 rpm for 10 min, and plasma was collected. Brain and plasma samples were immediately frozen at – 80 ℃ for LC/MS/MS analysis. All experimental procedures were carried out according to EU Directive 2010/63/EU and approved by the I Local Ethics Committee for Animal Experiments of the Jagiellonian University in Krakow, Poland (No. 94/2016).
The pharmacokinetic parameters were calculated using a non-compartmental approach from the average concentration values, using Phoenix WinNonlin software (Certara, Princeton, NJ 08540 USA). The first-order elimination rate constant (λz) was calculated by linear regression of time versus log concentration. Next, the area under the mean plasma and the concentration in the brain versus the time curve (AUC0→t) were estimated using the log-linear trapezoidal rule (Eq. 1), where Cn is the concentration of the last sampling of each compound1 AUC0→t=∑i=1n(Ci+Ci+1)/2·ti+1-ti+Cn/λz.
The quantification of compounds in plasma and brain samples was performed using the Sciex API 3200 triple quadrupole mass spectrometer (Concord, Ontario, Canada) equipped with an electrospray (ESI) ionization interface. This instrument was coupled to an Elite LaChrom (Hitachi, USA) HPLC system. Data acquisition and processing were performed using Sciex Analyst 1.5.2 data collection and integration software. After preparation, the samples were injected (20 µL) onto XBridge C18 (2.1 mm × 30 mm, 3.5 μm, Waters, Milford, Massachusetts, USA) analytical column. The mobile phase consisted of 0.1% formic acid in acetonitrile (A) and 0.1% formic acid in water (B) was delivered in a gradient elution starting with 90% of eluent B, increasing for 2 min to 90% of eluent A, maintained for 3 min, and then returned for 5 min to 90% of eluent B, and maintained 90% of eluent B during 5 min at a flow rate of 300 µL/min. The total analysis time was 10 min. […] The ion spray source settings were as follows: spray voltage: 5.5 kV, heater temperature: 400 °C, curtain gas: 10 psi, source gas 1: 20 psi, and source gas 2: 20 psi.
Further dilutions were performed using the same solvent to prepare working standard solutions of the analyte at the following concentrations: 0.025, 0.05, 0.1, 0.25, 0.5, 1.0, 2.5, 5.0, 10, 25, and 50 µg/mL for calibration curve samples (CC) and 0.025, 0.075, 2.2, and 4.5 µg/mL for quality control samples (QC). To prepare samples for calibration curve or quality control samples, 45 µL of the matrix (plasma or brain homogenate) was added with 5 µL of internal standard solution (1 µg/mL) obtaining the final concentration of 100 ng/mL and 5 µL of standard working solutions at the needed CC or QC concentration levels. After the addition of the standard solution, the samples were mixed and purified.
A sample volume of 50 µL of plasma or brain homogenate was transferred to the clean Eppendorf tube and spiked with 5 µL of IS solution (1 µg/mL) obtaining the final concentration of 100 ng/mL. After 5 min of mixing (1500 rpm) proteins were precipitated using 200 µL ACN. After 10 min of sample shaking (1500 rpm), the incubation step was performed (10 min, 4 °C). The samples were then centrifuged (10,000 rpm, 10 min, 4 °C) and the supernatant was transferred to chromatographic vials for LC/MS/MS analysis.

[1] = rat brain, ip, Guanabenz 0.3 mg/kg, 4-OH-Guanabenz 0.4 mg/kg

Row | Structure (SMILES) | Tmax (ip) | concentration at 5 min | concentration at 15 min | concentration at 30 min | concentration at 60 min | concentration at 120 min | concentration at 240 min | AUC0→t [1] | t0.5 [1] | Penetration into the brain | Tmax (ip, 0.3 mg/kg)
1 | Cl.N=C(N)NN=Cc1c(Cl)cc(O)cc1Cl [4-OH-Guanabenz, 2-[(2,6-Dichloro-4-hydroxyphenyl)methylene]hydrazinecarboximidamide Hydrochloride] | 0.25 h | 13.3 ng/g | 64.5 ng/g | 23.9 ng/g | 4.54 ng/g | 3.94 ng/g | 3.2 ng/g | 2573 ng ⋅ min/g | 112.7 min | Poor | –
2 | N=C(N)N/N=C/c1c(Cl)cccc1Cl [Guanabenz] | 1 h | 45.6 ng/g | 110 ng/g | 164 ng/g | 183 ng/g | 92.5 ng/g | 58.6 ng/g | – | 116.1 min | Good | ≤ 1 h
